Laboratory results taken from publication PMC9887155, “Kinetics of cone specific G-protein signaling in avian photoreceptor cells” (Frontiers in Molecular Neuroscience, 2023).
Entries after “also recorded” stand apart in the source; their conditions may differ. Ends that are not written are not given here.

How the values were obtained:
Gtα/Giα chimera = test: FRET interaction of dansylated peptides with Gtα/Giα in solution; format: binding, European robin (Erithacus rubecula); settings: excitation 280 nm; for decrease of fluorescence emission in the presence of Gtα/Giα: FRET, dansylated peptide and Gtα/Giα each 16.7 μM, GDP 10 μM, incubated on ice in the dark 30 min, pH 7.4; for fluorescence emission maximum: dansylated peptide 16.7 μM, 80 mM Hepes pH 7.4, 40 mM KCl, 150 mM NaCl, 10 mM MgCl2
Experimental: Interaction of the Gtα/Giα chimera with peptide LWO2 and the control peptide LWO2-sc was tested by Förster resonance energy transfer (FRET) measurements. We designed an experiment using fluorescence excitation at 280 nm of endogenous Trp residues in Gtα/Giα and peptide and emission of Trp fluorescence at 334 nm that excited the fluorescence dye 5-Dimethylamino-1-naphthalinsulfonyl chloride (dansyl chloride). The emission spectrum of dansyl chloride was recorded between 400 and 550 nm. For this purpose, we coupled dansyl chloride to free amino groups in LWO2 and LWO2-sc. Peptides were solved in H20 bidest (1 mg/ml) and 66 μl of a peptide solution were mixed with 50 μl borat buffer (0.1 M, pH 9.5). Twenty-five μL dansyl chloride (1 mg/ml in acetone) were added and the solutions were incubated at room temperature for 5 h in darkness. Afterwards, we separated non-reacted dansyl chloride, non-reacted peptides and covalently labeled LWO2 or LWO2-sc by reversed phase liquid chromatography (HPLC) using a LiChrospher® 100 RP-18 (5 μm) column (Merck, Germany) in a Hitachi Primaide HPLC system. The column was equilibrated in 0.1% trifluoro-acetic acid (v/v) in H2O bidest. Separation was achieved by applying a gradient from 0.1% trifluoro-acetic acid (v/v) in H2O bidest to 100% acetonitrile with 0.1% trifluoro-acetic acid (v/v) in 55 min. Peaks were detected at 280 nm and the area was used to calculate the coupling yield that was at 84–97% for both peptides. FRET measurements employing the FRET pair intrinsic tryptophan and attached dansyl were performed with a fluorescence spectrometer from photon Technology International. The basic operation principle was essentially as described before ([Behnen et al., 2009]; [Scholten and Koch, 2011]) using the following modifications. Shortly before recording the spectrum, the dansylated LWO2 (or LWO2-sc) containing fraction of the HPLC elution was diluted in fluorescence buffer (80 mM Hepes pH 7.4, 40 mM KCl, 150 mM NaCl, 10 mM MgCl2) at a final concentration of 16.7 μM. After adding the G protein, the mixtures were incubated on ice in the dark for 30 min. During the measurements with the Gtα/Giα, it was present in GDP-bound conformation ([GDP] = 10 μM). The excitation wavelength was set to 280 nm and the emission spectrum was recorded from 400 to 550 nm. Recording and analysis of the data was performed using Photon Technology International software package FELIX32.

[1] = test system: Gtα/Giα chimera (cone specific G protein α-subunit); test: SPR interaction of LWO peptides with immobilized Gtα/Giα chimera; format: binding, European robin (Erithacus rubecula); settings: for binding to Gtα/Giα (qualitative): immobilized Gtα/Giα, pH 7.4
Experimental: The peptides representing the cytoplasmic loops of LWO (Figure 1) were purchased from Genscript (Netherlands). Sequences of the peptides were deduced from genetic sequences of the European robin genome ([Dunn et al., 2021]). Two control peptides were ordered containing scrambled sequences of LWO2 and LWO3 assigned as LWO2-sc and LWO3-sc, respectively (Table 1). To the N-terminus of each peptide, a linker (CGAGA or CGAGAG) was added to allow for specific covalent coupling via cysteine. All peptides were ordered to a purity of >90% and contained no further N-terminal modifications. The C-terminus of peptides LWO-1-3 were amidated to simulate a continuation of the peptide chain, while LWO-4 was left unmodified to represent the opsin C-terminus. Quality control by LC–MS was performed by Genscript, and concentrations of the peptides were confirmed by UV–vis measurements.
We used a Gtα/Giα chimera to allow functional expression in E. coli according to previous attempts with bovine Gtα ([Skiba et al., 1996]). Cloning of the Gtα variants was performed by PCR mutagenesis of the plasmid described in [Görtemaker et al. (2022)]. In short, the construct contained an N-terminal 6x histidine tag and SUMO (Small Ubiquitin like MOdifier) protein (for metal affinity purification and subsequent tag cleavage) followed by the Gtα chimera. Truncation of 3 and 6 amino acids was performed using the primers 1 and 2 and 1 and 3, respectively. Sequences are available in Supplementary Table S1. The truncated variants were expressed following the same protocol as the full-length protein.
Purification of the Gtα/Giα chimera was performed as exactly described previously ([Görtemaker et al., 2022]). We used the same procedure for purification of the truncated Gtα variants, but we excluded the final size exclusion chromatography. Protein samples were analyzed by standard analytical techniques such as sodium dodecyl-sulfate polyacrylamide gel electrophoresis (SDS-PAGE) and protein quantification according to established procedures in the laboratory ([Elbers et al., 2018]).
Surface plasmon resonance (SPR) measurements were performed on a Biacore 3,000 (GE Healthcare now Cytiva). We followed the general operation principle that had been described before ([Koch, 2000]; [Komolov et al., 2009]). In the present work, we immobilized the non-myristoylated Gtα/Giα chimera or its truncated variants using CM5 sensor chips (GE Healthcare) for all applications exactly as previously described ([Görtemaker et al., 2022]). Immobilization densities of Gtα/Giα were 2.6–3.4 ng/mm^2. The truncated variants Gt-3AA and Gt-6AA bound to the senor chip surface at densities of 3.1–4.2 ng/mm^2. First, we studied the interaction processes by injection of peptides representing the cytoplasmic regions in LWO (Table 1). Two peptides made from the amino acids present in LWO2 and LWO3, but in scrambled order (Table 1), served as controls. We injected different concentrations (10, 50, 100, and 200 nM or alternatively: 10, 25, 45, 55, 75, and 100 nM) at a flow rate of either 25 μl/min or 50 μl/min in SPR running buffer (10 mM HEPES/NaOH, pH 7.4, 150 mM NaCl, 10 mM MgCl2, 0.005% Tween-20, 3.4 mM EDTA). In addition, we coated control surfaces with ubiquitin-like-protease 1 as previously described ([Görtemaker et al., 2022]). For kinetic investigation of LWO2 binding to Gtα/Giα, we injected different peptide concentrations in random order. Regeneration of the surface was performed with a basic-detergent cocktail adopted from [Andersson et al. (1999)] containing final concentrations of 12.5 mM of ethanolamine, Na2PO4, piperazine, and glycine set to a pH of 11.75, as well as containing 0.2% sodium dodecyl sulfate. Despite the relatively harsh conditions, regeneration was judged to be slightly incomplete. […] With the conditions used, reproducible data was still obtained. Sensorgrams were evaluated by nonlinear curve fitting applying the global fitting approach (BIAevaluation software 4.1, GE Healthcare). […]

## CGAGA-FRVKDGWINPGKFEVWCKF [LWO2-sc]
Gtα/Giα chimera; label-free peptide alone or with Gtα/Giα
  fluorescence emission of label-free peptide (control): No fluorescence emission was also observed
[1]; peptide 100 nM
  binding to Gtα/Giα (qualitative): slight decrease in resonance units indicating no binding signal

## CGAGA-GSKSQRARAEQVETAQAKAEISVEK [LWO3-sc]
[1]; peptide 100 nM
  binding to Gtα/Giα (qualitative): did not indicate a binding process

## CGAGA-TAKFKKLRHPLNWI [LWO1, peptide representing a cytoplasmic loop of European robin long wavelength opsin]
[1]; peptide 100 nM
  binding to Gtα/Giα (qualitative): did not indicate a binding process

## CGAGAG-AIRAVAAQQKESESTQKAEKEVSR [LWO3, peptide representing the third cytoplasmic loop of European robin LWO]
[1]; peptide 100 nM
  binding to Gtα/Giα (qualitative): slight decrease in RU and a kind of recovery phase; also recorded: did not detect any interaction
[1]; peptide 100 nM, buffer flow after injection, decreased over time
  positive response during subsequent buffer flow: ca. 10 RU
[1]; peptide 200 nM, Supplementary Figure S1
  binding to Gtα/Giα (qualitative), 200 nM: no specific binding process occurred

## CGAGAG-NRQFRNCILQLFGKKVDDGSEVSTSRTEVSSVSNSSGS [LWO4, peptide representing the opsin C-terminus of European robin LWO]
[1]; peptide 100 nM
  binding to Gtα/Giα (qualitative): did not indicate a binding process

## dansyl-LWO2-sc: LWO2-sc with dansyl chloride coupled to free amino groups (CGAGAFRVKDGWINPGKFEVWCKF; cysteine pairing not given here; also: dansyl coupled to free amino groups)
Gtα/Giα chimera
  decrease of fluorescence emission in the presence of Gtα/Giα: 9,000 relative fluorescence counts
  fluorescence emission maximum: 516 nm

## dansyl-LWO2: LWO2 with dansyl chloride coupled to free amino groups (CGAGAWERWFVVCKPFGNIKFDGK-NH2; cysteine pairing not given here; also: dansyl coupled to free amino groups)
Gtα/Giα chimera
  decrease of fluorescence emission in the presence of Gtα/Giα: 14,000 relative fluorescence counts
  fluorescence emission maximum: 510 nm
